Data on one molecule can be found in patent publication US20120172344A1, “INSULIN-PRODUCING CELL INDUCER, GLUCOSE INTAKE ENHANCER, AND THERAPEUTIC AGENT FOR DIABETES OR DIABETES COMPLICATIONS” (KYUSHU UNIVERSITY, NATIONAL UNIVERSITY CORPORATION, priority 2009, published 2012).

One assay deals with AKT and Glut4. Nature of the assay: Experimental Example 3: intramuscular expression of AKT and Glut4 (western blot, immunostaining). Type of assay: in vivo, mouse. From the text:
Primary antibodies: Anti-insulin antibody (dilution rate 1:500; DAKO), anti-glucagon antibody (dilution rate 1:500; Linco Research Inc.), anti-DBA antibody (dilution rate 1:300; Vector Laboratories), anti-Pdx-1 antibody (dilution rate 1:1000; kindly provided by Chris V. E. Wright, Vanderbilt University), anti-collagen type IV antibody (dilution rate 1:250; PROGEN Biotechnik), and anti-Glut 4 antibody (dilution rate 1:1000; Chemicon).
The primary antibodies were detected by immunofluorescence labeling using secondary antibodies conjugated with Alexa 488 or Alexa 568 (1:200; Molecular Probes); third antibody conjugated with biotin-labeled secondary antibodies and streptavidin Alexa 488 or Alexa 568 (1:800; Vector Laboratories); or by an immunoperoxidase staining method using biotin-labeled secondary antibodies. Staining was visualized with diaminobenzidine. The sections were counterstained with hematoxylin. Images were captured on a BZ9000 microscope (Keyence), or in the confocal mode on an LSM 510 META confocal microscope (Carl Zeiss). Immunofluorescence intensity was measured in random fields (n=30/section) using LSM Zeiss software, and the result was expressed as average pixel intensity.
Mice were sacrificed, and the EDL, tibialis anterior, and gastrocnemius muscles were removed and snap-frozen in liquid nitrogen. […]
Protein levels were quantified using NIH Image. […]
Background: Immunoblotting shows a protein as a band on a membrane.

A further assay concerns Tg23 mice. Description: Experimental Example 4: blood glucose, blood parameters, food consumption and oral glucose tolerance test. The format is in vivo, mouse. As to conditions: for blood glucose level: Tg23 mice 11 weeks of age. The protocol:
Blood glucose levels were measured by an enzyme-electrode method with ONE TOUCH UltraVue (Johnson & Johnson K.K.) on whole blood taken from tail veins of subject animals.
Immediately before collecting organs, blood parameters were measured using various methods and measurement kits described below in blood collected from the hearts of animals anesthetized with nembutal.
(c) Blood urea nitrogen (BUN): Urease UV method,
(d) Aspartate aminotransferase (AST) and alanine aminotransferase (ALT): JSCC standardization method,
(e) Serum insulin concentration: Enzyme-linked immunosorbent assay kit (Morinaga Institute of Biological Science),
(f) Serum glucagon concentration: YK142 Mouse […] EIA kit (Yanaihara Institute Inc.),
(g) Total serum cholesterol level: Enzymatic assay reagent (Wako Pure Chemical Industries),
After a 16-hour fast, mice were administered with glucose (1 g/kg of body weight) by gavage. Blood samples were collected from the tail vein at 0, 15, 30, 60, 90, and 120 minutes after the oral administration, and blood glucose levels were measured. In addition, blood samples were collected from the tail vein in a similar manner at 0, 15, and 30 minutes after the oral administration, and serum insulin concentrations were measured.
Subject mice were individually housed in metabolic cages for four days to assess food consumption (g/24 h) and water consumption (ml/24 h). During measurement, food and water were supplied to the mice ad libitum. Measurements were repeated three times for each group.
Tg23 mice (11 weeks of age) were divided into four groups (each group: n=4 to 10): an estradiol administration group (E only group), a testectomy group (Tx only group), a testectomy-and-estradiol administration group (Tx+E group), and a control group (Tg group). For E only group, sham surgery of testectomy (Tx) was performed, and a single pellet of 17β-estradiol (E) was subcutaneously administered at the nape of the neck. […] For Tx+E group, testectomy was performed, and a single pellet of 17β-estradiol was subcutaneously administered at the nape of the neck.
Then, blood glucose levels (mg/dl) were measured every week for E only group, Tx only group, Tx+E group, and Tg group, and wild-type mice (WT). In addition, measurements were performed with Tx+E group, Tg group, and wild-type mice (WT), for serum insulin concentrations (pg/mL), serum glucagon concentrations (pg/mL), blood urea nitrogen (BUN) concentrations (mg/dL), total serum cholesterol levels ([…]), aspartate aminotransferase (AST)/alanine aminotransferase (ALT), and food consumption per day (g/day). Furthermore, oral glucose tolerance test was performed, and changes in blood glucose level and serum insulin concentration over time were measured.

Setting [1] is: Tx+E mice, glucose 1 g/kg by gavage after 16-hour fast.

`C[C@]12CC[C@@H]3c4ccc(O)cc4CC[C@H]3[C@@H]1CC[C@@H]2O` [estradiol, 17β-estradiol]: in the assay on AKT and Glut4 (Tg mice in Tx-E group), the “glucose transporter (Glut4) in muscle cells” value is on record as “increased”. The “expression of intramuscular AKT and Glut4” value with AKT and Glut4 (Tg mice, Tx + 17β-estradiol pellet s.c.) was “upregulates”. The blood glucose level entry with Tg23 mice (E only group (sham surgery + 17β-estradiol pellet s.c.)) is recorded as “effective for reducing blood glucose level”. Besides, the blood glucose level entry with Tg23 mice (Tx+E group (testectomy + 17β-estradiol pellet s.c.)) was “effective for reducing blood glucose level”. In the assay with Tg23 mice (Tx+E mice), the AST/ALT result is on record as “returned to normal”, the “blood urea nitrogen (BUN)” value is on record as “returned to normal”, the “food consumption per day” value was “returned to normal” and the serum glucagon result is “returned to normal”. In addition, in the assay with Tg23 mice (Tx+E mice), the serum insulin level result is “largely increased” and the total serum cholesterol entry is listed as “returned to normal”. For the same molecule, in the assay with Tg23 mice (setting [1]), the “blood glucose level in oral glucose tolerance test” value is “returned to basal level after a time point of 180 minutes” and the “insulin secretion in oral glucose tolerance test” value is given as “increased”.
